How the values were obtained:
[1] = target: recombinant human carbonic anhydrase IX (Homo sapiens, UniProt Q16790); test: hCA IX esterase assay with p-nitrophenyl acetate; conditions: p-nitrophenyl acetate substrate, competitive inhibition, pH 7.5, 20 °C
Procedure: In this measurement, the enzymatically catalyzed hydrolysis of p-nitrophenyl acetate to p-nitrophenol was investigated. […] This was followed by measurement of the v-S-characteristics with inhibitor. […] For each run, 2 experimental series (biological replicate) were prepared simultaneously and measured for 10 min at a measurement interval of 8 s, also as a two-fold determination (technical replicate). […] The resulting reaction velocities, calculated from a calibration curve with p-nitrophenole under the same conditions, were plotted against the substrate concentration. The kinetic evaluation for competitive inhibition was then performed with the program GraphPad Prism.

A375 melanoma cells = test: SRB cytotoxicity assay, A375; type: cell-based; conditions: Homo sapiens, A-375; SRB assay, 96 h incubation, mean ± SD; read-out: IC50 A375
Procedure: (§1) All of the compounds were dissolved in dimethyl sulfoxide (DMSO) to achieve a 20 mM stock solution. Cells were seeded in cell culture flasks 24 h before treatment. The treatment was performed for 24 h.
(§2) The cytotoxicity of the drugs was determined in 2D tumor models using sulforhodamine B (SRB) assays. Treatment started 24 h after seeding the tumor cells in 96-well plates as previously described.

[2] = test system: MCF-7 breast cancer cells; test: SRB cytotoxicity assay, MCF-7; type: cell-based; conditions: Homo sapiens, MCF7; SRB assay, 96 h incubation, mean ± SD; read-out: IC50 MCF-7
Procedure: as §1, §2

hypoxia-induced hCA IX = hypoxia-induced hCA IX (Homo sapiens, UniProt Q16790); test: Cell-based hCA IX inhibition, Wilbur-Anderson method, hypoxic Hs578T cells; conditions: 20 µM, 3 h, vs untreated hypoxic cells
Procedure: In a cell-based system, the changes of extracellular pH due to activity of hypoxia-induced hCA IX were determined. Hydration of CO2 to hydrogen carbonate and a proton catalyzed by extracellular hCA IX are the basis for detecting changes in pH depending on activity of hCA IX. Breast cancer cells (Hs578T) were cultured under hypoxic conditions for induction of hCA IX expression and afterwards treated with 20 µM of each substance for 3 h. Normoxic and hypoxic cells without treatment were used as reference. Cells were washed, scraped down, and resuspended in ice-cold isotonic buffer.

[3] = test system: A2780 ovarian cancer cells; test: SRB cytotoxicity assay, A2780; type: cell-based; conditions: Homo sapiens, A2780; SRB assay, 96 h incubation, mean ± SD; read-out: IC50 A2780
Procedure: as §1, §2

Hs578T spheroids = test system: Hs578T spheroids; design: method as in PMID 36780832; conditions: Hs578T versus MDA-MB-231 spheroids; cited from earlier work

Structure (SMILES)	Ki Values of hCA IX [1]	IC50 (A375 melanoma cells)	IC50 [2]	inhibition of hypoxia-induced hCA IX activity (relative WAU) (hypoxia-induced hCA IX)	IC50 [3]	resistance of Hs578T spheroids (Hs578T spheroids)
C=C(C)[C@@H]1CC[C@]2(C(=O)O)CC[C@]3(C)[C@H](CC[C@@H]4[C@@]5(C)CC[C@H](O)C(C)(C)[C@@H]5CC[C@]43C)[C@@H]12 [BA, betulinic acid]	n.i.	13.1 ± 0.9 µM	13 ± 1 µM	no potential to inhibit hCA IX activity	12.5 ± 1.8 µM	
COc1cccc2c1C(=O)c1c(O)c3c(c(O)c1C2=O)C[C@@](O)(C(=O)CO)C[C@@H]3O[C@H]1C[C@H](N)[C@H](O)[C@H](C)O1 [doxorubicin]						60 fold
CC(=O)O[C@H]1C(=O)[C@@]2(C)[C@H]([C@H](OC(=O)c3ccccc3)[C@]3(O)C[C@H](OC(=O)[C@H](O)[C@@H](NC(=O)c4ccccc4)c4ccccc4)C(C)=C1C3(C)C)[C@]1(OC(C)=O)CO[C@@H]1C[C@@H]2O [paclitaxel]						20 fold
